According to patent US20260373132A1, “PERK INHIBITORHC-5404 IN COMBINATION WITH ANTI-PD-1 ANTIBODY AND/OR AN ANTIANGIOGENETIC AGENT FOR USE IN THE TREATMENT OF CANCER” (HIBERCELL, INC., priority 2022, published 2026):

Columns and labels:
[1] = mouse plasma protein binding; assay type: in vitro ADME; settings: read-out: Mouse plasma protein binding (PPB %) (converted)
Protocol: Initial in vivo studies aimed at understanding the pharmacokinetic and pharmacodynamic (PK/PD) relationship and optimizing the dosing regimen were conducted. HC-5404 was quantified from mouse plasma following a single oral administration (PO) at doses ranging from 3 to 100 mg/kg. […] Mouse plasma protein binding (PPB %) was determined to be 95.6%, which enabled us to calculate the free drug plasma exposure across time (FIG. 18).

pPERK in 786-O tumors = assay: pPERK in 786-O tumor xenografts; assay type: in vivo, mouse
[2] = system: ASNS, CBS and CTH in 786-O tumors; assay: ASNS, CBS and CTH in 786-O tumors; assay type: in vivo, mouse; settings: HC-5404 treatment (FIG. 29)
Protocol: Samples were put in 500 μL of Novex lysis buffer consisting of 2× Novex Tris-Glycine SDS sample buffer (ThermoFisher LC2676), 1× Phosphatase Inhibitor Cocktail III (Sigma P0044), 1× PhosphataseArrest I (Gbioscience 113P-D), 1×2-mercaptoethanol (Gibco 21985023), 1× Benzonase (EMD Millipore Corp 70746-3), and 1× Protease inhibitor cocktail tablet (Roche/Sigma 11836170001). Samples were homogenized with the Polytron and heated for 10 min at 95 °C. They were then centrifuged at max speed for 10 min and the supernatant was transferred. Protein concentrations of samples were measured using the Pierce 660 nm Protein assay kit (Thermo Scientific 22660) according to the manufacturer's instructions.
Western Blot analysis was performed on the SimpleWestern high-throughput protein analysis platform (ProteinSimple 004-650) according to manufacturer's protocol using a 12-230 kDA Separation Module (ProteinSimple SM-W004) and Total Protein Detection Module (ProteinSimple DM-TP01). Antibodies used were: (Add info for other antibodies used) pPERK (Lilly; 1:50) and PERK (Cell Signaling Technology 5683; 1:200). All protein analytes were normalized to total protein loaded on capillary.
The effect of HC-5404 was further validated in tumors by assessing the response of markers of in vivo PERK inhibition. […]

[3] = system: pro-angiogenic cytokines in mouse plasma; assay: plasma pro-angiogenic cytokines, mice bearing 786-O tumors; assay type: in vivo
Protocol: Mouse plasma sampled following 7 days of treatment with HC-5404 (30 mpk, PO, BID) and cabozantinib (30 mpk, PO, QD). Multiple cytokines associated with angiogenesis were quantified by Illumina multiplex.
Plasma analysis from mice bearing 786-O tumors, treated with HC-5404 at 3, 10, or 30 mg/kg (PO; BID) as a single agent or in combination with cabozantinib (30 mg/kg; PO; QD). Multiple cytokines associated with angiogenesis were quantified by Illumina multiplex (FIG. 86, FIG. 87, FIG. 88, FIG. 89, FIG. 90).

[4] = system: tumor vasculature and pericyte cells of 786-O xenografts progressed on axitinib; assay: IHC of tumor vasculature and pericytes in 786-O xenografts that progressed on axitinib; assay type: in vivo, mouse; settings: 7 days after rerandomization (FIG. 92)
Protocol: Formalin-fixed paraffin-embedded samples were sectioned at 5 μm thickness and mounted on Superfrost Plus microscope slides (Fisher Scientific). All immunohistochemical (IHC) staining was performed on Bond Rx auto-stainer (Leica Biosystems) using the conventional TSA-amplified detection system. Primary antibodies used were as follows: α-CD31 (Abcam #ab182981), α-smooth muscle actin (SMA; Abcam #ab124964), α-Meca32 (Novus Biologicals #NB100-77668). TSA-conjugated Alexa488 and Alexa647 fluorophores from Invitrogen (#B40953 and #B40958) were used at 1:500 dilution. Slides were counterstained with DAPI and cover slipped using Mowiol antifade mounting media (Sigma #D2522).
Slides were imaged with Aperio Versa 200 (Leica Biosystems) whole-slide scanner using 10×/0.32NA objective, and the data were analyzed using custom-written macros in ImageJ/FIJI (NIH). Briefly, 150 μm of outer edges of the tumor sections were eliminated from the analysis. Gaussian-blurred DAPI channel was used to measure the area of the tissue. Scans of […] were processed with median filter to remove noise, then positive areas were measured with appropriate threshold levels. % positive area for each marker was calculated. CD31-SMA double positive areas were measured via image calculation of the binary images. One-way ANOVA and pair-wise comparisons were performed on the data using Prism GraphPad.
After 14 days of treatments, 77 mice bearing the largest tumors were rerandomized into four PD arms (n=8), four efficacy arms (n=10), and 5 tumors sampled on day of rerandomization as a baseline. The remaining animals were removed from study.

RIOK2 = RIOK2 (Homo sapiens, UniProt Q9BVS4); assay: KINOMEScan biochemical panel assay, RIOK2; assay type: binding; settings: 1000 nM
RIOK2, sequence (Q9BVS4 whole entry, canonical isoform): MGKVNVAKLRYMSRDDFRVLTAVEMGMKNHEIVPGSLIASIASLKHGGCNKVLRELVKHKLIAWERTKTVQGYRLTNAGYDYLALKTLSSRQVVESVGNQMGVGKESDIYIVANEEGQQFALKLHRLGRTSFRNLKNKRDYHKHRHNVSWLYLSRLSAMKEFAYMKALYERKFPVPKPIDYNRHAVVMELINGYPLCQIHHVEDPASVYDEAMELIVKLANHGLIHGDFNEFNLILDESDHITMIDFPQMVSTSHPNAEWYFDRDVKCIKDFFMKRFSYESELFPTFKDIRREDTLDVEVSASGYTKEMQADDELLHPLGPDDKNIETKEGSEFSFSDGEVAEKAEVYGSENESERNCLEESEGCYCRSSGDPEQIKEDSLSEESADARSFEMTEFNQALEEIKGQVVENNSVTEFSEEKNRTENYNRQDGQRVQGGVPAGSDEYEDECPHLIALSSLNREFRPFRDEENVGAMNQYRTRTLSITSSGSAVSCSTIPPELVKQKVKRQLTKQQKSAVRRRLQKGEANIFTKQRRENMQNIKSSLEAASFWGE
Protocol: The selectivity of HC-5404 against the broader kinome was then evaluated using a KINOMEScan biochemical panel assay that measured binding against 468 unique kinases, including 403 wild-type human kinases and 59 mutant isoforms.

RXF-2304 = assay: RCC PDX single animal trial, RXF-2304; assay type: in vivo, mouse; settings: HC-5404 30 mg/kg PO BID, n=1
Source text: This example investigated the effect of HC-5404 in combination with VEGFR-TKIs in inhibiting tumor growth using 12 RCC PDX tumor models, following procedures analogous to those described above.
Single animal per group (n=1) trial of animals harboring diverse RCC PDX models were used in this study.

fraction unbound [1]: 0.044
inhibition of RIOK2 (RIOK2): inhibited
SMILES: Cc1cc(NC(=O)[C@H](O)c2cc(F)cc(F)c2)ccc1-c1cnc(N)c(C(=O)NC(C)C)c1 [HC-5404, (R)-2-amino-5-(4-(2-(3,5-difluorophenyl)-2-hydroxyacetamido)-2-methylphenyl)-N-isopropylnicotinamide]
pPERK expression in 786-O (pPERK in 786-O tumors; 30 mg/kg PO BID, seven days (FIG. 30)): strongly inhibited pPERK expression
time of return of pPERK to baseline in 786-O tumors (pPERK in 786-O tumors; 30 mg/kg, post dose): ≤ 8 h
pPERK levels in 786-O (pPERK in 786-O tumors; DC-101 study, 4 days of treatment (FIG. 37)): inhibited the pPERK signal
inhibition at 30 mg/kg (pPERK in 786-O tumors; Mus musculus, 786-0, 30 mg/kg, 1 h post dose): ~90%
VEGFR-TKI-induced pPERK accumulation in 786-O tumors (pPERK in 786-O tumors; PD arm, 7 days, HC-5404 in combination with VEGFR-TKIs): inhibited by the addition of HC-5404
accumulation of ASNS, CBS and CTH [2]: dose-dependent accumulation of ASNS, CBS and CTH
VEGF-A in plasma ([3]; 3, 10, 30 mg/kg PO BID (FIG. 86)): decreased in plasma by HC-5404 as a single agent in a dose-dependent fashion
LYVE-1 in plasma ([3]; 3, 10, 30 mg/kg PO BID, alone or with cabozantinib (FIG. 89)): decreased by HC-5404 in a dose-dependent manner
Syndecan in plasma ([3]; 3, 10, 30 mg/kg PO BID, alone or with cabozantinib (FIG. 90)): decreased by HC-5404 as monotherapy
proportion of smooth muscle actin (SMA) [4]: decreased
antitumor efficacy as monotherapy (RXF-2304): exhibited antitumor efficacy
